Results taken from PubChem BioAssay AID1963853 (Molecular Pharmacology Branch, DTP, NCI, 2024).

Test system: 266295-075-R-J1-PDC spheroid viability
Test: Anticancer human tumor 266295-075-R-J1-PDC patient-derived head and neck squamous carcinoma cell line growth inhibition [POLQ]
Conditions: spheroids with HUVEC and MSC; for IC50: curve of first compound; for viability, T/C: stronger effect = lower value
Method in brief: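 Three-cell-type spheroids modelling solid tumor plus stroma served as the readout system; POL inhibitors were tested individually and in combination, concentration ranges set by clinical Cmax where known.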

[1] = second compound 0.0316 µM, first compound 0.0316 µM
[2] = second compound 0.0316 µM, first compound 0.1 µM
[3] = second compound 0.0316 µM, first compound 0.316 µM
[4] = second compound 0.0316 µM, first compound 1 µM
[5] = second compound 0.0316 µM, first compound 3.16 µM
[6] = second compound 0.0316 µM, first compound 10 µM
[7] = second compound 0.1 µM, first compound 0.0316 µM
[8] = second compound 0.1 µM, first compound 0.1 µM
[9] = second compound 0.1 µM, first compound 0.316 µM
[10] = second compound 0.1 µM, first compound 1 µM
[11] = second compound 0.1 µM, first compound 3.16 µM
[12] = second compound 0.1 µM, first compound 10 µM
[13] = second compound 0.316 µM, first compound 0.0316 µM
[14] = second compound 0.316 µM, first compound 0.1 µM
[15] = second compound 0.316 µM, first compound 0.316 µM
[16] = second compound 0.316 µM, first compound 1 µM
[17] = second compound 0.316 µM, first compound 3.16 µM
[18] = second compound 0.316 µM, first compound 10 µM
[19] = second compound 1 µM, first compound 0.0316 µM
[20] = second compound 1 µM, first compound 0.1 µM
[21] = second compound 1 µM, first compound 0.316 µM
[22] = second compound 1 µM, first compound 1 µM
[23] = second compound 1 µM, first compound 3.16 µM
[24] = second compound 1 µM, first compound 10 µM
[25] = second compound 3.16 µM, first compound 0.0316 µM
[26] = second compound 3.16 µM, first compound 0.1 µM
[27] = second compound 3.16 µM, first compound 0.316 µM
[28] = second compound 3.16 µM, first compound 1 µM
[29] = second compound 3.16 µM, first compound 3.16 µM
[30] = second compound 3.16 µM, first compound 10 µM
[31] = second compound 10 µM, first compound 0.0316 µM
[32] = second compound 10 µM, first compound 0.1 µM
[33] = second compound 10 µM, first compound 0.316 µM
[34] = second compound 10 µM, first compound 1 µM
[35] = second compound 10 µM, first compound 3.16 µM
[36] = second compound 10 µM, first compound 10 µM
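Note: spheroids exposed to compounds for seven days before readout.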

## O=c1[nH]cc(F)c(=O)[nH]1 + Nc1ccc(C#CCN(C(=O)Cc2ncc(C(F)(F)F)cc2C(F)(F)F)c2ccc(F)cc2)nn1
Second compound 0.0316 µM
  IC50: > 10 µM
Second compound 0.1 µM
  IC50: > 10 µM
Second compound 0.316 µM
  IC50: > 10 µM
Second compound 1 µM
  IC50: > 10 µM
Second compound 3.16 µM
  IC50: > 10 µM
Second compound 10 µM
  IC50: > 10 µM
[1]
  viability, T/C: 107%
[2]
  viability, T/C: 101%
[3]
  viability, T/C: 104%
[4]
  viability, T/C: 109%
[5]
  viability, T/C: 102%
[6]
  viability, T/C: 99.5%
[7]
  viability, T/C: 85.5%
[8]
  viability, T/C: 116%
[9]
  viability, T/C: 84.7%
[10]
  viability, T/C: 98%
[11]
  viability, T/C: 109%
[12]
  viability, T/C: 80.2%
[13]
  viability, T/C: 102%
[14]
  viability, T/C: 96.5%
[15]
  viability, T/C: 83%
[16]
  viability, T/C: 89.6%
[17]
  viability, T/C: 108%
[18]
  viability, T/C: 76%
[19]
  viability, T/C: 105%
[20]
  viability, T/C: 85.7%
[21]
  viability, T/C: 95.6%
[22]
  viability, T/C: 120%
[23]
  viability, T/C: 86%
[24]
  viability, T/C: 79.8%
[25]
  viability, T/C: 99.9%
[26]
  viability, T/C: 131%
[27]
  viability, T/C: 101%
[28]
  viability, T/C: 89.3%
[29]
  viability, T/C: 99.1%
[30]
  viability, T/C: 86.9%
[31]
  viability, T/C: 113%
[32]
  viability, T/C: 103%
[33]
  viability, T/C: 95.8%
[34]
  viability, T/C: 96.3%
[35]
  viability, T/C: 88%
[36]
  viability, T/C: 87.1%

## C=CC(=O)N1CCN(c2nc(=O)n(-c3c(C)ccnc3C(C)C)c3nc(-c4c(O)cccc4F)c(F)cc23)C(C)C1 (centres undefined) + COC1C(OC(N)=O)C(O)C(Oc2ccc3c(O)c(NC(=O)c4ccc(O)c(CC=C(C)C)c4)c(=O)oc3c2C)OC1(C)C
Second compound 0.0316 µM
  IC50: > 10 µM
Second compound 0.1 µM
  IC50: > 10 µM
Second compound 0.316 µM
  IC50: > 10 µM
Second compound 1 µM
  IC50: > 10 µM
Second compound 3.16 µM
  IC50: > 10 µM
Second compound 10 µM
  IC50: > 10 µM
[1]
  viability, T/C: 88.8%
[2]
  viability, T/C: 94.7%
[3]
  viability, T/C: 133%
[4]
  viability, T/C: 118%
[5]
  viability, T/C: 112%
[6]
  viability, T/C: 112%
[7]
  viability, T/C: 98.7%
[8]
  viability, T/C: 90.6%
[9]
  viability, T/C: 94%
[10]
  viability, T/C: 104%
[11]
  viability, T/C: 96%
[12]
  viability, T/C: 129%
[13]
  viability, T/C: 96.9%
[14]
  viability, T/C: 103%
[15]
  viability, T/C: 104%
[16]
  viability, T/C: 106%
[17]
  viability, T/C: 125%
[18]
  viability, T/C: 105%
[19]
  viability, T/C: 85.9%
[20]
  viability, T/C: 114%
[21]
  viability, T/C: 93.4%
[22]
  viability, T/C: 106%
[23]
  viability, T/C: 139%
[24]
  viability, T/C: 124%
[25]
  viability, T/C: 92.2%
[26]
  viability, T/C: 98.4%
[27]
  viability, T/C: 108%
[28]
  viability, T/C: 112%
[29]
  viability, T/C: 116%
[30]
  viability, T/C: 117%
[31]
  viability, T/C: 97%
[32]
  viability, T/C: 79.3%
[33]
  viability, T/C: 92.5%
[34]
  viability, T/C: 122%
[35]
  viability, T/C: 109%
[36]
  viability, T/C: 114%
